Tested on: 186277-243-T-J2-PDC complex spheroids, viability
Assay: Anticancer human tumor 186277-243-T-J2-PDC patient-derived colon adenocarcinoma cell line growth inhibition [RAS]
Details: for IC50: curve of first compound; for viability, T/C: stronger effect = lower value; active = viability on the fitted dose curve at most 10% of control; inactive = the rest
Summary of the method: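 Agents were tested in combination matrices in half-log decrements from a top concentration at or near clinical Cmax (10 microM if undetermined). Targets were multi-cell spheroids of tumour lines plus HUVEC and MSC stromal cells.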

[1] = second compound 0.000949 µM, first compound 0.0316 µM
[2] = second compound 0.000949 µM, first compound 0.1 µM
[3] = second compound 0.000949 µM, first compound 0.316 µM
[4] = second compound 0.000949 µM, first compound 1 µM
[5] = second compound 0.000949 µM, first compound 3.16 µM
[6] = second compound 0.000949 µM, first compound 10 µM
[7] = second compound 0.003 µM, first compound 0.0316 µM
[8] = second compound 0.003 µM, first compound 0.1 µM
[9] = second compound 0.003 µM, first compound 0.316 µM
[10] = second compound 0.003 µM, first compound 1 µM
[11] = second compound 0.003 µM, first compound 3.16 µM
[12] = second compound 0.003 µM, first compound 10 µM
[13] = second compound 0.00949 µM, first compound 0.0316 µM
[14] = second compound 0.00949 µM, first compound 0.1 µM
[15] = second compound 0.00949 µM, first compound 0.316 µM
[16] = second compound 0.00949 µM, first compound 1 µM
[17] = second compound 0.00949 µM, first compound 3.16 µM
[18] = second compound 0.00949 µM, first compound 10 µM
[19] = second compound 0.03 µM, first compound 0.0316 µM
[20] = second compound 0.03 µM, first compound 0.1 µM
[21] = second compound 0.03 µM, first compound 0.316 µM
[22] = second compound 0.03 µM, first compound 1 µM
[23] = second compound 0.03 µM, first compound 3.16 µM
[24] = second compound 0.03 µM, first compound 10 µM
[25] = second compound 0.0949 µM, first compound 0.0316 µM
[26] = second compound 0.0949 µM, first compound 0.1 µM
[27] = second compound 0.0949 µM, first compound 0.316 µM
[28] = second compound 0.0949 µM, first compound 1 µM
[29] = second compound 0.0949 µM, first compound 3.16 µM
[30] = second compound 0.0949 µM, first compound 10 µM
[31] = second compound 0.3 µM, first compound 0.0316 µM
[32] = second compound 0.3 µM, first compound 0.1 µM
[33] = second compound 0.3 µM, first compound 0.316 µM
[34] = second compound 0.3 µM, first compound 1 µM
[35] = second compound 0.3 µM, first compound 3.16 µM
[36] = second compound 0.3 µM, first compound 10 µM
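Also: spheroids exposed to compounds for 7 days before viability read.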

CC(C)NCC(C(=O)N1CCN(c2ncnc3c2C(C)CC3O)CC1)c1ccc(Cl)cc1 (stereo unspecified) + CCn1c(-c2cc(N3CCN(C)CC3)cnc2C(C)OC)c2c3cc(ccc31)-c1csc(n1)CC(NC(=O)C1CC1C)C(=O)N1CCCC(N1)C(=O)OCC(C)(C)C2
69.2 nM: IC50 (second compound 0.00949 µM)
841 nM: IC50 (second compound 0.000949 µM)
< 31.6 nM: IC50 (second compound 0.03 µM) | IC50 (second compound 0.0949 µM) | IC50 (second compound 0.3 µM)
active: viability, T/C [12] 7.85% | viability, T/C [16] 11.4% | viability, T/C [17] 4.9% | viability, T/C [18] 1.96% | viability, T/C [21] 7.36% | viability, T/C [22] 3.74% | viability, T/C [23] 1.65% | viability, T/C [24] 0.66% | viability, T/C [25] 6.83% | viability, T/C [26] 6.82% | viability, T/C [27] 4.35% | viability, T/C [28] 2.2% | viability, T/C [29] 1.09% | viability, T/C [30] 0.38% | viability, T/C [31] 6.18% | viability, T/C [32] 5.27% | viability, T/C [33] 3.57% | viability, T/C [34] 1.82% | viability, T/C [35] 0.88% | viability, T/C [36] 0.37%
467 nM: IC50 (second compound 0.003 µM)
inactive: viability, T/C [1] 111% | viability, T/C [2] 101% | viability, T/C [3] 74.8% | viability, T/C [4] 42.8% | viability, T/C [5] 34.8% | viability, T/C [6] 20.4% | viability, T/C [7] 98.6% | viability, T/C [8] 81.6% | viability, T/C [9] 58.8% | viability, T/C [10] 33.8% | viability, T/C [11] 16.1% | viability, T/C [13] 51.6% | viability, T/C [14] 51% | viability, T/C [15] 28% | viability, T/C [19] 13.1% | viability, T/C [20] 15.3%

CC(C)n1nc(-c2ccc3oc(N)nc3c2)c2c(N)ncnc21 + CCn1c(-c2cc(N3CCN(C)CC3)cnc2C(C)OC)c2c3cc(ccc31)-c1csc(n1)CC(NC(=O)C1CC1C)C(=O)N1CCCC(N1)C(=O)OCC(C)(C)C2
active: viability, T/C [14] 5.22% | viability, T/C (second compound 0.03 µM, first compound 0.00316 µM) 9.71% | viability, T/C (second compound 0.03 µM, first compound 0.01 µM) 6.52% | viability, T/C [19] 4.01% | viability, T/C [20] 2.6% | viability, T/C (second compound 0.0949 µM, first compound 0.000316 µM) 7.46% | viability, T/C (second compound 0.0949 µM, first compound 0.001 µM) 6.37% | viability, T/C (second compound 0.0949 µM, first compound 0.00316 µM) 5.35% | viability, T/C (second compound 0.0949 µM, first compound 0.01 µM) 3.33% | viability, T/C [25] 2.32% | viability, T/C [26] 1.41% | viability, T/C (second compound 0.3 µM, first compound 0.000316 µM) 5.75% | viability, T/C (second compound 0.3 µM, first compound 0.001 µM) 5.69% | viability, T/C (second compound 0.3 µM, first compound 0.00316 µM) 4.23% | viability, T/C (second compound 0.3 µM, first compound 0.01 µM) 2.81% | viability, T/C [31] 2.02% | viability, T/C [32] 1.43%
< 0.316 nM: IC50 (second compound 0.00949 µM) | IC50 (second compound 0.03 µM) | IC50 (second compound 0.0949 µM) | IC50 (second compound 0.3 µM)
46.6 nM: IC50 (second compound 0.000949 µM)
inactive: viability, T/C (second compound 0.000949 µM, first compound 0.000316 µM) 104% | viability, T/C (second compound 0.000949 µM, first compound 0.001 µM) 109% | viability, T/C (second compound 0.000949 µM, first compound 0.00316 µM) 87.9% | viability, T/C (second compound 0.000949 µM, first compound 0.01 µM) 69.8% | viability, T/C [1] 62.2% | viability, T/C [2] 34.8% | viability, T/C (second compound 0.003 µM, first compound 0.000316 µM) 106% | viability, T/C (second compound 0.003 µM, first compound 0.001 µM) 104% | viability, T/C (second compound 0.003 µM, first compound 0.00316 µM) 88.3% | viability, T/C (second compound 0.003 µM, first compound 0.01 µM) 72.9% | viability, T/C [7] 46.7% | viability, T/C [8] 20.1% | viability, T/C (second compound 0.00949 µM, first compound 0.000316 µM) 49.4% | viability, T/C (second compound 0.00949 µM, first compound 0.001 µM) 47.4% | viability, T/C (second compound 0.00949 µM, first compound 0.00316 µM) 37.7% | viability, T/C (second compound 0.00949 µM, first compound 0.01 µM) 30.8% | viability, T/C [13] 12.7% | viability, T/C (second compound 0.03 µM, first compound 0.000316 µM) 14.8% | viability, T/C (second compound 0.03 µM, first compound 0.001 µM) 12.5%
27.5 nM: IC50 (second compound 0.003 µM)

C[C@@H](NC(=O)c1ncnc(N)c1Cl)c1ncc(C(=O)Nc2cc(C(F)(F)F)c(Cl)cn2)s1 + CCn1c(-c2cc(N3CCN(C)CC3)cnc2C(C)OC)c2c3cc(ccc31)-c1csc(n1)CC(NC(=O)C1CC1C)C(=O)N1CCCC(N1)C(=O)OCC(C)(C)C2
3630 nM: IC50 (second compound 0.00949 µM)
active: viability, T/C [25] 9.22% | viability, T/C [26] 10.4% | viability, T/C [27] 10% | viability, T/C [28] 9.11% | viability, T/C [29] 8.59% | viability, T/C [30] 7.09% | viability, T/C [31] 7.68% | viability, T/C [32] 8.08% | viability, T/C [33] 7.77% | viability, T/C [34] 7.85% | viability, T/C [35] 7.78% | viability, T/C [36] 4.79%
< 31.6 nM: IC50 (second compound 0.03 µM) | IC50 (second compound 0.0949 µM) | IC50 (second compound 0.3 µM)
> 10000 nM: IC50 (second compound 0.000949 µM) | IC50 (second compound 0.003 µM)
inactive: viability, T/C [1] 104% | viability, T/C [2] 87.5% | viability, T/C [3] 88% | viability, T/C [4] 88.7% | viability, T/C [5] 85.9% | viability, T/C [6] 73.6% | viability, T/C [7] 108% | viability, T/C [8] 114% | viability, T/C [9] 109% | viability, T/C [10] 82.6% | viability, T/C [11] 93.2% | viability, T/C [12] 54.4% | viability, T/C [13] 61.7% | viability, T/C [14] 83.8% | viability, T/C [15] 78.6% | viability, T/C [16] 71.4% | viability, T/C [17] 54.2% | viability, T/C [18] 19.8% | viability, T/C [19] 21.2% | viability, T/C [20] 23.7% | viability, T/C [21] 25.3% | viability, T/C [22] 20.9% | viability, T/C [23] 16.9% | viability, T/C [24] 10%
